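Tested at 5 concentrations; 48 h exposure; 96-well plates; endpoints linearly interpolated, else capped at highest concentration. GI50 is the concentration that inhibits growth by half.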 Activity calls are given as the source filed them. No stated cut-off is given here; in the data, active = GI50 up to about 1.1 µM and inactive = higher.
Key:
Experiment in all cases: NCI tumour cell line growth inhibition, 48 h
ACHN = tested on: ACHN
CCRF-CEM = tested on: CCRF-CEM
HCC 2998 = tested on: HCC 2998
HCT-116 = tested on: HCT-116
HL-60 = tested on: HL-60
HT-29 = tested on: HT-29
IGROV-1 = tested on: IGROV-1
K562 = tested on: K562
M19-MEL = tested on: M19-MEL
NCI-H460 = tested on: NCI-H460
NCI-H522 = tested on: NCI-H522
OVCAR-5 = tested on: OVCAR-5
SF-539 = tested on: SF-539
SK-MEL-2 = tested on: SK-MEL-2
SN12C = tested on: SN12C
SR = tested on: SR
UACC-62 = tested on: UACC-62
SF-268 = tested on: SF-268
DU-145 = tested on: DU-145
T47D = tested on: T47D

Structure (SMILES) | GI50 (ACHN) | GI50 (CCRF-CEM) | GI50 (HCC 2998) | GI50 (HCT-116) | GI50 (HL-60) | GI50 (HT-29) | GI50 (IGROV-1) | GI50 (K562) | GI50 (M19-MEL) | GI50 (NCI-H460) | GI50 (NCI-H522) | GI50 (OVCAR-5) | GI50 (SF-539) | GI50 (SK-MEL-2) | GI50 (SN12C) | GI50 (SR) | GI50 (UACC-62) | GI50 (SF-268) | GI50 (DU-145) | GI50 (T47D)
C/C(CN1C(=O)c2ccccc2C1=O)=N\NS(=O)(=O)c1ccc(Cl)cc1 | > 100 µM (inactive) | > 100 µM (inactive) | > 100 µM (inactive) | > 100 µM (inactive) | > 100 µM (inactive) | > 100 µM (inactive) | > 100 µM (inactive) | > 100 µM (inactive) | > 100 µM (inactive) | > 100 µM (inactive) | > 100 µM (inactive) | > 100 µM (inactive) | > 100 µM (inactive) | > 100 µM (inactive) | 18.8 µM (inactive) | > 100 µM (inactive) | > 100 µM (inactive) | – | – | –
NS(=O)(=O)c1ccc(NC(=O)c2cccc3c(=O)c4ccccc4[nH]c23)cc1 | > 100 µM (inactive) | 5.85 µM (inactive) | > 100 µM (inactive) | 32.4 µM (inactive) | 31.8 µM (inactive) | > 100 µM (inactive) | 78.5 µM (inactive) | 62.2 µM (inactive) | 73.3 µM (inactive) | > 100 µM (inactive) | 3.8 µM (inactive) | > 100 µM (inactive) | 22.7 µM (inactive) | 41 µM (inactive) | 94.4 µM (inactive) | 22 µM (inactive) | 41.8 µM (inactive) | 30.6 µM (inactive) | – | –
FC(F)(F)c1nc2ccc3[nH]c4c(-c5ccccc5)nccc4c3c2[nH]1 | > 100 µM (inactive) | > 45.7 µM (inactive) | > 100 µM (inactive) | > 74.5 µM (inactive) | 97.5 µM (inactive) | > 100 µM (inactive) | > 100 µM (inactive) | > 56.9 µM (inactive) | > 100 µM (inactive) | > 80 µM (inactive) | > 83.8 µM (inactive) | > 100 µM (inactive) | > 100 µM (inactive) | > 100 µM (inactive) | > 100 µM (inactive) | 17.9 µM (inactive) | > 100 µM (inactive) | > 100 µM (inactive) | – | –
O=C(/C(=C/c1ccccc1)c1ccccc1)N1c2ccccc2CC1c1c[nH]c2ccccc12 (configuration not stated) | 16.9 µM (inactive) | 8.91 µM (inactive) | > 100 µM (inactive) | 5.51 µM (inactive) | 3.19 µM (inactive) | 76.4 µM (inactive) | > 100 µM (inactive) | 5.05 µM (inactive) | 38.6 µM (inactive) | 7.48 µM (inactive) | 7.8 µM (inactive) | 38.6 µM (inactive) | > 100 µM (inactive) | 6.03 µM (inactive) | 22.2 µM (inactive) | > 100 µM (inactive) | > 100 µM (inactive) | – | – | –
CC(=O)OC12CCCCC1C1(CCCC1)NC2=O (configuration not stated) | > 100 µM (inactive) | > 100 µM (inactive) | > 100 µM (inactive) | > 100 µM (inactive) | > 100 µM (inactive) | > 100 µM (inactive) | > 100 µM (inactive) | > 100 µM (inactive) | > 100 µM (inactive) | > 100 µM (inactive) | – | > 100 µM (inactive) | > 100 µM (inactive) | – | > 100 µM (inactive) | > 100 µM (inactive) | > 100 µM (inactive) | > 100 µM (inactive) | – | –
O=S(=O)(N/N=C/c1ccc(Cl)c(Cl)c1)c1ccccc1 | 43.1 µM (inactive) | 48.1 µM (inactive) | 30.2 µM (inactive) | 35.1 µM (inactive) | 26.6 µM (inactive) | 40.1 µM (inactive) | 33.3 µM (inactive) | 33.5 µM (inactive) | 37.3 µM (inactive) | – | – | 38.2 µM (inactive) | 44.8 µM (inactive) | 34.2 µM (inactive) | 37.7 µM (inactive) | 42.3 µM (inactive) | 46.2 µM (inactive) | 31 µM (inactive) | – | –
Cc1ccc(NC(=O)C(=O)C2NC(=S)NC2=O)c([N+](=O)[O-])c1 (configuration not stated) | > 100 µM (inactive) | > 100 µM (inactive) | > 100 µM (inactive) | > 100 µM (inactive) | > 100 µM (inactive) | > 100 µM (inactive) | > 100 µM (inactive) | > 100 µM (inactive) | > 100 µM (inactive) | > 100 µM (inactive) | > 100 µM (inactive) | > 100 µM (inactive) | > 100 µM (inactive) | > 100 µM (inactive) | > 100 µM (inactive) | > 100 µM (inactive) | > 100 µM (inactive) | > 100 µM (inactive) | – | –
Cc1cc(O)nc(NN2C(Cl)C(=O)C2c2ccc(Cl)cc2)n1 (configuration not stated) | 23 µM (inactive) | 1.87 µM (inactive) | 17 µM (inactive) | 11.3 µM (inactive) | 3.18 µM (inactive) | 18 µM (inactive) | 3.61 µM (inactive) | 2.88 µM (inactive) | 17.7 µM (inactive) | 16.4 µM (inactive) | – | 40 µM (inactive) | 16.3 µM (inactive) | 19.3 µM (inactive) | 16.7 µM (inactive) | 1.27 µM (inactive) | 16.7 µM (inactive) | 19.8 µM (inactive) | 23.3 µM (inactive) | 16.6 µM (inactive)
Cc1ccc(S(=O)(=O)N/N=C\c2c3ccccc3[n+](C)c3ccccc23)cc1 | 41.9 µM (inactive) | 15.3 µM (inactive) | 92.7 µM (inactive) | 30.5 µM (inactive) | 22 µM (inactive) | 19.4 µM (inactive) | 29.6 µM (inactive) | 15.6 µM (inactive) | 32.1 µM (inactive) | 19.8 µM (inactive) | 25.8 µM (inactive) | > 100 µM (inactive) | 22.4 µM (inactive) | 43.8 µM (inactive) | 48.6 µM (inactive) | – | 19.8 µM (inactive) | 29.2 µM (inactive) | – | –
O=C(O/N=C1/CCCC/C1=C\c1ccccc1)c1ccc(Cl)cc1 | > 100 µM (inactive) | > 100 µM (inactive) | 0.0177 µM (active) | > 100 µM (inactive) | 24.7 µM (inactive) | > 100 µM (inactive) | > 100 µM (inactive) | > 100 µM (inactive) | > 100 µM (inactive) | > 100 µM (inactive) | 23.3 µM (inactive) | 44.8 µM (inactive) | > 100 µM (inactive) | > 100 µM (inactive) | > 100 µM (inactive) | 56.6 µM (inactive) | > 100 µM (inactive) | > 100 µM (inactive) | – | –
CCN(CC)CCC(=O)Nc1ccc2c(c1)C(=O)c1ccc(NC(=O)CCN(CC)CC)cc1C2=O | 4.07 µM (inactive) | 3.55 µM (inactive) | > 100 µM (inactive) | 2.19 µM (inactive) | 4.23 µM (inactive) | 2.59 µM (inactive) | 4.06 µM (inactive) | 3.29 µM (inactive) | > 100 µM (inactive) | 1.38 µM (inactive) | 11.2 µM (inactive) | 11.2 µM (inactive) | 3.51 µM (inactive) | 4.79 µM (inactive) | 2.84 µM (inactive) | 3.37 µM (inactive) | 10.4 µM (inactive) | 5.62 µM (inactive) | – | –
CC1(C)OCN(c2ccc(N3CCOCC3)cc2)Cn2c1nc1ccccc12 | 64 µM (inactive) | 40.7 µM (inactive) | > 100 µM (inactive) | 65.9 µM (inactive) | 26.4 µM (inactive) | > 100 µM (inactive) | > 100 µM (inactive) | > 100 µM (inactive) | > 100 µM (inactive) | > 100 µM (inactive) | > 100 µM (inactive) | – | 88.1 µM (inactive) | > 100 µM (inactive) | > 100 µM (inactive) | 31.2 µM (inactive) | > 100 µM (inactive) | > 100 µM (inactive) | – | –
O=[N+]([O-])c1nccn1COCCI | > 100 µM (inactive) | > 100 µM (inactive) | – | > 100 µM (inactive) | > 100 µM (inactive) | > 100 µM (inactive) | > 100 µM (inactive) | > 100 µM (inactive) | > 100 µM (inactive) | > 100 µM (inactive) | > 100 µM (inactive) | > 100 µM (inactive) | > 100 µM (inactive) | > 100 µM (inactive) | > 100 µM (inactive) | > 100 µM (inactive) | > 100 µM (inactive) | > 100 µM (inactive) | – | –
CCOC(=O)Nc1ccc(S(=O)(=O)I)cc1.CCOC(=O)Nc1ccc(S(=O)(=O)I)cc1.CN(C=O)C1=C(N(C)C=O)C(N(C)C=O)=C(N(C)C=O)C(=O)C1=O | > 100 µM (inactive) | > 100 µM (inactive) | > 100 µM (inactive) | > 100 µM (inactive) | > 100 µM (inactive) | > 100 µM (inactive) | > 100 µM (inactive) | > 100 µM (inactive) | > 100 µM (inactive) | > 100 µM (inactive) | – | > 100 µM (inactive) | > 100 µM (inactive) | > 100 µM (inactive) | > 100 µM (inactive) | > 100 µM (inactive) | > 100 µM (inactive) | > 100 µM (inactive) | – | –
C=C1C(=O)C23C(O)C1CC[C@H]2C12CCCC(C)(COC(C)=O)[C@H]1[C@H](O)[C@]3(O)OC2 (some centres not stated) | 1.51 µM (inactive) | 0.211 µM (active) | 1.85 µM (inactive) | 1.06 µM (active) | 0.279 µM (active) | 1.8 µM (inactive) | 2.08 µM (inactive) | 0.128 µM (active) | 2.01 µM (inactive) | 2.24 µM (inactive) | 0.285 µM (active) | 2.36 µM (inactive) | 1.68 µM (inactive) | 1.85 µM (inactive) | 1.71 µM (inactive) | – | 1.58 µM (inactive) | 3.19 µM (inactive) | 4.3 µM (inactive) | 1.3 µM (inactive)
